Laboratory results published in publication PMC7531004, “Discovery of gramicidin A analogues with altered activities by multidimensional screening of a one-bead-one-compound library” (Nature Communications, 2020).
Where a SMILES comes first, the peptide text is derived from it. [ ]: non-standard residue; d: D form. The star is where a group is joined. NHCH2CH2OH = OCCN*; For = O=C*

Tests used:
[1] = test system: Streptococcus pyogenes SSI-9; assay: Antibacterial activity assay of bead-derived peptides (three concentrations); format: cell-based; set-up: key: +++: inhibition by the 640-fold diluted peptide solution; ++: inhibition by the 160-fold diluted solution; +: inhibition by the 40-fold diluted solution; -: no inhibition; conditions: S. pyogenes, bead-derived peptide solution, three concentrations
Procedure, shortened: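 Growth inhibition scored visually as precipitated bacteria after 37 °C, 18 h incubation. Streptococcus pyogenes SSI-9 inoculum of 2 × 10^5 CFU in Ca2+/Mg2+-adjusted Mueller Hinton broth plus 5% laked horse blood; peptides tested at three levels: stock, 4-fold and 16-fold DMSO dilutions.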

[2] = H+/Na+ transport assay of bead-derived peptides (one-point); format: biochemical; set-up: key: relative activity; mean of two control wells = 1.00; conditions: bead-derived peptide solution, EYPC/EYPG LUVs;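 note: relative to parent gramicidin A activity set to 1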
Procedure, shortened: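 Values are normalized fluorescence, with Triton X-100 defining 100% and untreated LUVs 0%, and the two control wells averaging 1.00. Vesicles carried 1.0 mM pyranine and included egg yolk phosphatidylglycerol. Peptides were incubated with them 30 min at room temperature.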

[3] = cell viability/%
Procedure, shortened: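 Peptide stocks diluted 250× in growth medium; P388 cells 1 × 10^4 cells/mL final; 37 °C, 5% CO2, 92 h. WST-1 + 1-methoxy PMS, 4 h, A415. Output: % viability.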

CC(C)C[C@@H](NC(=O)[C@H](Cc1c[nH]c2ccccc12)NC(=O)[C@H](NC(=O)[C@H](Cc1c[nH]c2ccccc12)NC(=O)[C@@H](CC(C)C)NC(=O)[C@@H](NC(=O)[C@H](NC(=O)[C@H](C)NC(=O)[C@H](NC(=O)[C@H](C)NC(=O)CNC(=O)[C@@H](NC=O)C(C)C)C(C)C)C(C)C)C(C)C)[C@H](C)O)C(=O)N[C@@H](Cc1c[nH]c2ccccc12)C(=O)N[C@@H](C(=O)N[C@@H](Cc1c[nH]c2ccccc12)C(=O)NCCO)C(C)C [compound 3161] (For-VGA[dV]A[dV]V[dL]W[dT]W[dL]W[dV]W-NHCH2CH2OH)
antibacterial activity [1]: -
H+/Na+ transport activity normalized against the value of 1 (1.00) [2]: 1.00
viability [3]: 100%

CC(C)C[C@@H](NC(=O)[C@H](C)NC(=O)[C@H](NC(=O)[C@H](C)NC(=O)CNC(=O)[C@@H](NC=O)C(C)C)C(C)C)C(=O)N[C@H](C(=O)N[C@H](CC(C)C)C(=O)N[C@@H](Cc1c[nH]c2ccccc12)C(=O)N[C@@H](C(=O)N[C@@H](Cc1c[nH]c2ccccc12)C(=O)N[C@@H](C(=O)N[C@@H](Cc1c[nH]c2ccccc12)C(=O)N[C@H](CC(C)C)C(=O)N[C@@H](Cc1c[nH]c2ccccc12)C(=O)NCCO)[C@H](C)O)C(C)C)C(C)C [compound 3205] (For-VGA[dV]A[dL]V[dL]W[dV]W[dT]W[dL]W-NHCH2CH2OH)
antibacterial activity [1]: -
H+/Na+ transport activity normalized against the value of 1 (1.00) [2]: 1.16
viability [3]: 90.2%

CC(C)C[C@@H](NC(=O)[C@H](C)NC(=O)[C@H](NC(=O)[C@H](C)NC(=O)CNC(=O)[C@@H](NC=O)C(C)C)C(C)C)C(=O)N[C@H](C(=O)N[C@@H](C(=O)N[C@@H](Cc1c[nH]c2ccccc12)C(=O)N[C@@H](C(=O)N[C@@H](Cc1c[nH]c2ccccc12)C(=O)N[C@H](CC(C)C)C(=O)N[C@@H](Cc1c[nH]c2ccccc12)C(=O)N[C@@H](C(=O)N[C@@H](Cc1c[nH]c2ccccc12)C(=O)NCCO)C(C)C)C(C)C)[C@H](C)O)C(C)C [compound 3206] (For-VGA[dV]A[dL]V[dT]W[dV]W[dL]W[dV]W-NHCH2CH2OH)
antibacterial activity [1]: -
H+/Na+ transport activity normalized against the value of 1 (1.00) [2]: 1.19
viability [3]: 97.4%

CC(C)C[C@@H](NC(=O)[C@H](Cc1c[nH]c2ccccc12)NC(=O)[C@@H](CC(C)C)NC(=O)[C@H](Cc1c[nH]c2ccccc12)NC(=O)[C@H](NC(=O)[C@H](Cc1c[nH]c2ccccc12)NC(=O)[C@H](NC(=O)[C@@H](NC(=O)[C@H](NC(=O)[C@H](C)NC(=O)[C@H](NC(=O)[C@H](C)NC(=O)CNC(=O)[C@@H](NC=O)C(C)C)[C@H](C)O)C(C)C)C(C)C)C(C)C)[C@H](C)O)C(=O)N[C@@H](Cc1c[nH]c2ccccc12)C(=O)NCCO [compound 3226] (For-VGA[dT]A[dV]V[dV]W[dT]W[dL]W[dL]W-NHCH2CH2OH)
antibacterial activity [1]: -
H+/Na+ transport activity normalized against the value of 1 (1.00) [2]: 1.06
viability [3]: 87.6%

CC(C)C[C@@H](NC(=O)[C@H](C)NC(=O)CNC(=O)[C@@H](NC=O)C(C)C)C(=O)N[C@@H](C)C(=O)N[C@H](CC(C)C)C(=O)N[C@H](C(=O)N[C@H](CC(C)C)C(=O)N[C@@H](Cc1c[nH]c2ccccc12)C(=O)N[C@@H](C(=O)N[C@@H](Cc1c[nH]c2ccccc12)C(=O)N[C@@H](C(=O)N[C@@H](Cc1c[nH]c2ccccc12)C(=O)N[C@H](CC(C)C)C(=O)N[C@@H](Cc1c[nH]c2ccccc12)C(=O)NCCO)[C@H](C)O)[C@H](C)O)C(C)C [compound 3244] (For-VGA[dL]A[dL]V[dL]W[dT]W[dT]W[dL]W-NHCH2CH2OH)
antibacterial activity [1]: -
H+/Na+ transport activity normalized against the value of 1 (1.00) [2]: 1.03
viability [3]: 100%

CC(C)C[C@@H](NC(=O)[C@H](C)NC(=O)CNC(=O)[C@@H](NC=O)C(C)C)C(=O)N[C@@H](C)C(=O)N[C@@H](C(=O)N[C@H](C(=O)N[C@H](CC(C)C)C(=O)N[C@@H](Cc1c[nH]c2ccccc12)C(=O)N[C@H](CC(C)C)C(=O)N[C@@H](Cc1c[nH]c2ccccc12)C(=O)N[C@@H](C(=O)N[C@@H](Cc1c[nH]c2ccccc12)C(=O)N[C@H](CC(C)C)C(=O)N[C@@H](Cc1c[nH]c2ccccc12)C(=O)NCCO)C(C)C)C(C)C)[C@H](C)O [compound 3247] (For-VGA[dL]A[dT]V[dL]W[dL]W[dV]W[dL]W-NHCH2CH2OH)
antibacterial activity [1]: -
H+/Na+ transport activity normalized against the value of 1 (1.00) [2]: 1.24
viability [3]: 99.5%

CC(C)C[C@@H](NC(=O)[C@H](C)NC(=O)[C@H](NC(=O)[C@H](C)NC(=O)CNC(=O)[C@@H](NC=O)C(C)C)C(C)C)C(=O)N[C@H](C(=O)N[C@H](CC(C)C)C(=O)N[C@@H](Cc1c[nH]c2ccccc12)C(=O)N[C@H](CC(C)C)C(=O)N[C@@H](Cc1c[nH]c2ccccc12)C(=O)N[C@@H](C(=O)N[C@@H](Cc1c[nH]c2ccccc12)C(=O)N[C@H](CC(C)C)C(=O)N[C@@H](Cc1c[nH]c2ccccc12)C(=O)NCCO)C(C)C)C(C)C [compound 3255] (For-VGA[dV]A[dL]V[dL]W[dL]W[dV]W[dL]W-NHCH2CH2OH)
antibacterial activity [1]: +
H+/Na+ transport activity normalized against the value of 1 (1.00) [2]: 1.13
viability [3]: 4.6%

CC(C)C[C@@H](NC(=O)[C@H](C)NC(=O)[C@H](NC(=O)[C@H](C)NC(=O)CNC(=O)[C@@H](NC=O)C(C)C)C(C)C)C(=O)N[C@H](C(=O)N[C@H](CC(C)C)C(=O)N[C@@H](Cc1c[nH]c2ccccc12)C(=O)N[C@@H](C(=O)N[C@@H](Cc1c[nH]c2ccccc12)C(=O)N[C@H](CC(C)C)C(=O)N[C@@H](Cc1c[nH]c2ccccc12)C(=O)N[C@@H](C(=O)N[C@@H](Cc1c[nH]c2ccccc12)C(=O)NCCO)C(C)C)[C@H](C)O)C(C)C [compound 3260] (For-VGA[dV]A[dL]V[dL]W[dT]W[dL]W[dV]W-NHCH2CH2OH)
antibacterial activity [1]: +
H+/Na+ transport activity normalized against the value of 1 (1.00) [2]: 1.10
viability [3]: 100%

CNC(=O)C[C@@H](NC(=O)[C@@H](NC(=O)[C@@H](CC(C)C)NC(=O)[C@H](C)NC(=O)[C@@H](CC(C)C)NC(=O)[C@H](C)NC(=O)CNC(=O)[C@@H](NC=O)C(C)C)C(C)C)C(=O)N[C@@H](Cc1c[nH]c2ccccc12)C(=O)N[C@@H](C(=O)N[C@@H](Cc1c[nH]c2ccccc12)C(=O)N[C@H](CC(C)C)C(=O)N[C@@H](Cc1c[nH]c2ccccc12)C(=O)N[C@@H](C(=O)N[C@@H](Cc1c[nH]c2ccccc12)C(=O)NCCO)[C@H](C)O)C(C)C [compound 3280] (For-VGA[dL]A[dL]V[dD](NHMe)W[dV]W[dL]W[dT]W-NHCH2CH2OH)
antibacterial activity [1]: -
H+/Na+ transport activity normalized against the value of 1 (1.00) [2]: 1.20
viability [3]: 100%

CC(C)C[C@@H](NC(=O)[C@H](C)NC(=O)[C@H](NC(=O)[C@H](C)NC(=O)CNC(=O)[C@@H](NC=O)C(C)C)C(C)C)C(=O)N[C@H](C(=O)N[C@@H](C(=O)N[C@@H](Cc1c[nH]c2ccccc12)C(=O)N[C@H](CC(C)C)C(=O)N[C@@H](Cc1c[nH]c2ccccc12)C(=O)N[C@@H](C(=O)N[C@@H](Cc1c[nH]c2ccccc12)C(=O)N[C@@H](C(=O)N[C@@H](Cc1c[nH]c2ccccc12)C(=O)NCCO)[C@H](C)O)C(C)C)[C@H](C)O)C(C)C [compound 3328] (For-VGA[dV]A[dL]V[dT]W[dL]W[dV]W[dT]W-NHCH2CH2OH)
antibacterial activity [1]: -
H+/Na+ transport activity normalized against the value of 1 (1.00) [2]: 1.08
viability [3]: 100%

CNC(=O)C[C@@H](NC(=O)[C@H](Cc1c[nH]c2ccccc12)NC(=O)[C@H](NC(=O)[C@@H](NC(=O)[C@@H](CC(C)C)NC(=O)[C@H](C)NC(=O)[C@@H](CC(C)C)NC(=O)[C@H](C)NC(=O)CNC(=O)[C@@H](NC=O)C(C)C)C(C)C)C(C)C)C(=O)N[C@@H](Cc1c[nH]c2ccccc12)C(=O)N[C@H](CC(C)C)C(=O)N[C@@H](Cc1c[nH]c2ccccc12)C(=O)N[C@@H](C(=O)N[C@@H](Cc1c[nH]c2ccccc12)C(=O)NCCO)C(C)C [compound 3329] (For-VGA[dL]A[dL]V[dV]W[dD](NHMe)W[dL]W[dV]W-NHCH2CH2OH)
antibacterial activity [1]: +
H+/Na+ transport activity normalized against the value of 1 (1.00) [2]: 1.33
viability [3]: 100%

CNC(=O)C[C@@H](NC(=O)[C@H](Cc1c[nH]c2ccccc12)NC(=O)[C@H](NC(=O)[C@H](Cc1c[nH]c2ccccc12)NC(=O)[C@@H](CC(C)C)NC(=O)[C@@H](NC(=O)[C@H](NC(=O)[C@H](C)NC(=O)[C@H](NC(=O)[C@H](C)NC(=O)CNC(=O)[C@@H](NC=O)C(C)C)C(C)C)C(C)C)C(C)C)C(C)C)C(=O)N[C@@H](Cc1c[nH]c2ccccc12)C(=O)N[C@@H](C(=O)N[C@@H](Cc1c[nH]c2ccccc12)C(=O)NCCO)C(C)C [compound 3369] (For-VGA[dV]A[dV]V[dL]W[dV]W[dD](NHMe)W[dV]W-NHCH2CH2OH)
antibacterial activity [1]: -
H+/Na+ transport activity normalized against the value of 1 (1.00) [2]: 1.00
viability [3]: 100%

CC(C)C[C@@H](NC(=O)[C@H](C)NC(=O)[C@H](NC(=O)[C@H](C)NC(=O)CNC(=O)[C@@H](NC=O)C(C)C)C(C)C)C(=O)N[C@H](C(=O)N[C@@H](C(=O)N[C@@H](Cc1c[nH]c2ccccc12)C(=O)N[C@@H](C(=O)N[C@@H](Cc1c[nH]c2ccccc12)C(=O)N[C@@H](C(=O)N[C@@H](Cc1c[nH]c2ccccc12)C(=O)N[C@@H](C(=O)N[C@@H](Cc1c[nH]c2ccccc12)C(=O)NCCO)C(C)C)C(C)C)C(C)C)[C@H](C)O)C(C)C [compound 3492] (For-VGA[dV]A[dL]V[dT]W[dV]W[dV]W[dV]W-NHCH2CH2OH)
antibacterial activity [1]: -
H+/Na+ transport activity normalized against the value of 1 (1.00) [2]: 1.12
viability [3]: 100%
